Here are results for one compound from ChEMBL document CHEMBL1212695, “An allosteric potentiator of M4 mAChR modulates hippocampal synaptic transmission” (Nat Chem Biol, 2008).

Activity calls are given as the source filed them. The rule behind the calls is not given here.

In test [1] the target is T1, Muscarinic acetylcholine receptor M4 (Rattus norvegicus) (UniProt P08485).
T1 sequence (whole entry): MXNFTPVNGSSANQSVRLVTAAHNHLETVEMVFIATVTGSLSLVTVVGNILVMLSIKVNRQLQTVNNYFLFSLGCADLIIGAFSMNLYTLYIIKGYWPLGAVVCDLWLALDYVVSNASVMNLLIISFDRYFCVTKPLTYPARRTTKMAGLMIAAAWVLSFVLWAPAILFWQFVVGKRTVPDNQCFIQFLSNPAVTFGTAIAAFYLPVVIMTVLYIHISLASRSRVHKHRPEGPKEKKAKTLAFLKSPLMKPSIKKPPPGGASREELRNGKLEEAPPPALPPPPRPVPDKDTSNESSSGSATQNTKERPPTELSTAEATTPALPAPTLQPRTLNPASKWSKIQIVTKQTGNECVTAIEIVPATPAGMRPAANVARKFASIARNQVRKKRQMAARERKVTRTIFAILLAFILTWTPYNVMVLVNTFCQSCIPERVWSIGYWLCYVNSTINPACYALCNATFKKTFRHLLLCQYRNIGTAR
In words: Agonist activity at muscarinic M4 receptor in Sprague-Dawley rat hippocampal CA1 pyramidal neuron assessed as reduction of inhibitory postsynaptic current at 100 uM by whole-cell electrophysiology relative to control. The test is classed as functional, tissue-based. The note with it: Hippocampus.

The target in test [2] is T1, Muscarinic acetylcholine receptor M4 (Rattus norvegicus). In words: Agonist activity at muscarinic M4 receptor in Sprague-Dawley rat hippocampal CA1 pyramidal neuron assessed as inhibitory postsynaptic current amplitude at 5 uM by whole-cell electrophysiology relative to control. The note with it: Hippocampus. Set-up: scale not given: the % may be the effect or the level left. The test is classed as functional, tissue-based.

Test [3] can be described thus: Agonist activity at muscarinic receptor in M4 receptor knock out mouse hippocampal CA1 pyramidal neuron assessed as reduction of inhibitory postsynaptic current amplitude at 2 uM by whole-cell electrophysiology in presence of carbachol relative to control. The test is classed as functional. As to conditions: Hippocampus.
Test [4] deals with T2, Muscarinic acetylcholine receptor M1 (Rattus norvegicus) (UniProt P08482).
T2 sequence (whole entry): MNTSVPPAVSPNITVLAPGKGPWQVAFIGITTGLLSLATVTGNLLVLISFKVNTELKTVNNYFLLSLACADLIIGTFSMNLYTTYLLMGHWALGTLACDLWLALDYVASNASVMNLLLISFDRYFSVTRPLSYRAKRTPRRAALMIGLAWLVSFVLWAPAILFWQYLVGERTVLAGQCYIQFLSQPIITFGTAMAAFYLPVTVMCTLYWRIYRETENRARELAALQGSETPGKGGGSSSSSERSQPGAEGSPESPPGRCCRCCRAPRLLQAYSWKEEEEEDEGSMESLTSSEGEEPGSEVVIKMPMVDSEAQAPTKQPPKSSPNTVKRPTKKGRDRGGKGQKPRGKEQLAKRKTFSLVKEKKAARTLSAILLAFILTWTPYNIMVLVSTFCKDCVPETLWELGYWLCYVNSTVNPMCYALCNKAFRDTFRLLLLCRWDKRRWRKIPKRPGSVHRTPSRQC
The test is described as follows: Allosteric activation of rat recombinant muscarinic M1 receptor expressed in CHO cells assessed as potentiation of acetylcholine-induced calcium mobilization at 10 uM after 1 hr by fluorescence assay. The test is classed as functional, cell-based. Background: Calcium flux is commonly read through the fluorescence of an indicator in the cells.

In test [5] the target is T3, Muscarinic acetylcholine receptor M4 (Rattus norvegicus, UniProt P08485).
T3 sequence (P08485 whole entry): T1 sequence (whole entry)
In words: Allosteric activation of rat recombinant muscarinic M4 receptor expressed in CHO cells assessed as potentiation of 10 uM acetylcholine-induced calcium mobilization after 1 hr by fluorescence assay. It is filed as functional, cell-based.

The test system of the next test is CHO. In words: Antagonist activity at P2Y1 receptor in CHO cells assessed as calcium mobilization at 10 uM after 1 hr by fluorescence assay. It is filed as functional, cell-based. As to conditions: Cricetulus griseus.
Test [6] deals with T4, Muscarinic acetylcholine receptor M5 (Rattus norvegicus) (UniProt P08911).
T4 sequence (whole entry): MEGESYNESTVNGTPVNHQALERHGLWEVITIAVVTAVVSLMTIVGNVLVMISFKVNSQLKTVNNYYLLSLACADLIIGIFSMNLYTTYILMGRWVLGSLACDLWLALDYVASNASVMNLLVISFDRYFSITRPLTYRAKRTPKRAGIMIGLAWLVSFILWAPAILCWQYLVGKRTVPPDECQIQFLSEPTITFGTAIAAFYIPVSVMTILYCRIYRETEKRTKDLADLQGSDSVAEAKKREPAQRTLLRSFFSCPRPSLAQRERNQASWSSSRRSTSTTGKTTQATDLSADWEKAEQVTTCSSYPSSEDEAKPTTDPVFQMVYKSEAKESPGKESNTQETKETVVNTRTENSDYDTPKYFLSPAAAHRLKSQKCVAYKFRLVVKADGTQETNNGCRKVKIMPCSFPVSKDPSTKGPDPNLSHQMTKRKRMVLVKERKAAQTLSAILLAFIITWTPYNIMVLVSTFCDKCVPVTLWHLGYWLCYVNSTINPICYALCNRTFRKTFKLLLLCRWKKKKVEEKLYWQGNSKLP
In words: Displacement of [3H]NMS from rat recombinant muscarinic M5 receptor expressed in CHO cells after 2 hrs by microplate scintillation counting. The test is classed as cell-based. A general note: Loss of bound radioactivity is the signal in a displacement assay; it reports binding, not function.

Test [7] concerns the target T1, Muscarinic acetylcholine receptor M4 (Rattus norvegicus). In words: Allosteric activation of rat recombinant muscarinic M4 receptor expressed in CHO cells assessed as fold decrease in acetylcholine Ki for displacement of [3H]NMS from active binding site at 10 uM after 2 hrs by microplate scintillation counting. The test is classed as cell-based.
The target is the same in test [8]. The test is described as follows: Agonist activity at muscarinic M4 receptor in Sprague-Dawley rat hippocampal CA1 pyramidal neuron assessed as excitatory postsynaptic current amplitude at 5 uM by whole-cell electrophysiology relative to control. It is filed as functional, tissue-based. As to conditions: Hippocampus.
Test [9] has the same target. In words: Agonist activity at muscarinic M4 receptor in Sprague-Dawley rat hippocampal CA1 pyramidal neuron assessed as increase in carbachol-induced reduction in excitatory postsynaptic current at 5 uM by whole-cell electrophysiology relative to control. The test is classed as functional, tissue-based. As to conditions: Hippocampus. Set-up: scale not given: the % may be the effect or the level left.

Test [10] has as its target T5, Muscarinic acetylcholine receptor M4 (Mus musculus) (UniProt P32211).
T5 sequence (whole entry): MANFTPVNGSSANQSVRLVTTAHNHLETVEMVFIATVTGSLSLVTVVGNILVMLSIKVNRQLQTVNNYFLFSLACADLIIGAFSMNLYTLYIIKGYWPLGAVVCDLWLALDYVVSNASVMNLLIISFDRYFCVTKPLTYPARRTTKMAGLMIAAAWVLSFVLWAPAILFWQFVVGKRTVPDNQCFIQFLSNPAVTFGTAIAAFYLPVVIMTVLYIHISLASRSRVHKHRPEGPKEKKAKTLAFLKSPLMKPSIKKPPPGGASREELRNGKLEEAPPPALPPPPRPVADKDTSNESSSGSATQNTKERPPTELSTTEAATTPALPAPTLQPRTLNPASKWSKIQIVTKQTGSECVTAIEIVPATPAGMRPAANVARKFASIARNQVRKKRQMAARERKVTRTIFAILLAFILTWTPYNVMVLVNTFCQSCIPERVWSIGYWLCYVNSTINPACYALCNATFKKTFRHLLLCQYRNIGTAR
The test is described as follows: Agonist activity at muscarinic M4 receptor in wild type mouse hippocampal CA1 pyramidal neuron assessed as reduction of excitatory postsynaptic current at 100 uM by whole-cell electrophysiology relative to control. The test is classed as functional, tissue-based. The note with it: Hippocampus.

Test [11] concerns the target T5, Muscarinic acetylcholine receptor M4 (Mus musculus). The test is described as follows: Agonist activity at muscarinic M4 receptor in wild type mouse hippocampal CA1 pyramidal neuron assessed as increase in carbachol-induced reduction in excitatory postsynaptic current at 5 uM by whole-cell electrophysiology relative to control. As to conditions: Hippocampus. It is filed as functional, tissue-based. Set-up: scale not given: the % may be the effect or the level left.

Test [12] in a line: Agonist activity at muscarinic receptor in M4 receptor knock out mouse hippocampal CA1 pyramidal neuron assessed as reduction of excitatory postsynaptic current amplitude at 100 uM by whole-cell electrophysiology relative to control. The test is classed as functional. The note with it: Hippocampus.

Consider `Cc1cc(C)c2c(N)c(C(=O)NCc3ccc(Cl)cc3)sc2n1`, for which the inhibition in [1] came to 10.9%; in [10], 18%. Moreover, the Activity was found to be 98.5% in test [2], 108% in [8], 36.9% in test [9] and 39.8% in [11]. For the same compound, the inhibition at 2 µM in test [3] is 60.2%. Further, the outcome (in [4]; in the test on CHO; in test [6]) was inactive. Also, the EC50 in test [5] came to 0.4 µM. For the same compound, the fold change (FC) in [7] was determined as 14. Further, the inhibition at 100 µM in test [12] was 21.1%.

A word on the inhibition: it is how much of the control response was suppressed. The term EC50 denotes the concentration giving half of the maximal effect.
